Test results reported in the supplement of paper PMC10307832.

Key:
Test in all cases: relative viability (nuclei count vs DMSO), 5 days (fraction); higher = more cells survive
[1] = compound: CC1=NN=C(O1)C2=NN=C(C=C2)N3CCC(CC3)OC4=C(C=CC(=C4)F)Cl + Cc1nc(Nc2ncc(C(=O)Nc3c(C)cccc3Cl)s2)cc(N2CCN(CCO)CC2)n1 [Dasatinib] (partner 0.075 µM)
In short: (§1)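 Lung cancer cell lines were seeded in 1536-well plates and dosed by pin tool the next day, with either a single drug or a fixed anchor-drug dose combined with five library-drug doses (not always all listed) spaced in √10 steps. Five days later, one step fixed the cells and stained their nuclei (final 0.05% Triton X-100, 1% formaldehyde, 1 ug/ml Hoechst), and nuclei were counted on 4× images. Relative viability is the nuclei count in treated wells divided by the count in vehicle wells, and each value is the median of duplicate plates.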

[2] = compound: CC1=NN=C(O1)C2=NN=C(C=C2)N3CCC(CC3)OC4=C(C=CC(=C4)F)Cl + O=C(CCCCCCC(=O)Nc1ccccc1)NO [Vorinostat] (partner 1 µM)
In short: as §1

[3] = compound: CC(C)C[C@@H](C(=O)N[C@H](C(=O)OC1CCCC1)c1ccccc1)[C@H](O)C(=O)NO [Tosedostat] + O=C(CCCCCCC(=O)Nc1ccccc1)NO [Vorinostat] (partner 1 µM)
In short: as §1

[4] = compound: CC1=NN=C(O1)C2=NN=C(C=C2)N3CCC(CC3)OC4=C(C=CC(=C4)F)Cl + Nc1ncn([C@H]2C[C@H](O)[C@@H](CO)O2)c(=O)n1 [Decitabine] (partner 2 µM)
In short: as §1

Row | Cell Line | relative viability ([1]; first compound 0.253 µM) | relative viability ([1]; first compound 0.8 µM) | relative viability ([1]; first compound 2.53 µM) | relative viability ([1]; first compound 8 µM) | relative viability ([2]; first compound 0.253 µM) | relative viability ([2]; first compound 0.8 µM) | relative viability ([2]; first compound 2.53 µM) | relative viability ([2]; first compound 8 µM) | relative viability ([3]; first compound 0.02 µM) | relative viability ([3]; first compound 0.06325 µM) | relative viability ([3]; first compound 0.2 µM) | relative viability ([3]; first compound 0.6325 µM) | relative viability ([3]; first compound 2 µM) | relative viability ([4]; first compound 0.253 µM) | relative viability ([4]; first compound 0.8 µM) | relative viability ([4]; first compound 2.53 µM) | relative viability ([4]; first compound 8 µM)
1 | NCI-H1666 | 0.612 | 0.526 | 0.58 | 0.543 | 0.735 | 0.862 | 0.868 | 0.864 | 1.06 | 1.16 | 1.06 | 1.04 | 1.05 | 0.561 | 0.674 | 0.69 | 0.534
2 | NCI-H322M | 0.255 | 0.315 | 0.268 | 0.29 | 0.812 | 0.87 | 0.948 | 0.799 | 0.855 | 0.958 | 0.887 | 0.995 | 0.802 | 0.812 | 0.709 | 0.682 | 0.643
3 | LCLC-97TM1 | 0.395 | 0.324 | 0.345 | 0.347 | 0.649 |  | 0.522 | 0.573 | 0.682 | 0.602 | 0.533 | 0.532 | 0.47 | 0.205 |  | 0.186 | 0.18
4 | EPLC-272H | 0.35 | 0.277 | 0.404 | 0.302 | 0.352 | 0.529 | 0.313 | 0.387 | 0.509 | 0.489 | 0.347 | 0.401 | 0.269 | 0.361 | 0.366 | 0.4 | 0.374
5 | NCI-H522 | 0.856 | 0.842 | 0.974 | 0.938 | 0.958 | 0.925 | 0.964 | 0.805 | 1.12 | 0.897 | 0.954 | 0.918 | 0.916 | 0.629 | 0.624 | 0.573 | 0.65
6 | NCI-H2023 | 0.429 | 0.442 | 0.476 | 0.402 | 0.357 | 0.268 | 0.309 | 0.322 | 0.641 | 0.547 | 0.62 | 0.358 | 0.501 | 0.191 | 0.185 | 0.186 | 0.176
7 | NCI-H460 | 0.175 | 0.185 | 0.214 | 0.193 | 0.16 | 0.215 | 0.208 | 0.19 | 0.83 | 0.708 | 0.676 | 0.699 | 0.714 | 0.164 | 0.167 | 0.201 | 0.166
8 | NCI-H647 | 0.196 | 0.222 | 0.207 | 0.178 | 0.204 | 0.136 | 0.0766 | 0.0534 | 0.842 | 0.502 | 0.566 | 0.503 | 0.686 | 0.32 | 0.289 | 0.275 | 0.223
9 | NCI-H2170 | 0.351 | 0.332 | 0.374 | 0.316 | 0.449 | 0.366 | 0.473 | 0.362 | 0.923 | 0.786 | 0.963 | 0.724 | 0.777 | 0.366 | 0.323 | 0.357 | 0.321
10 | SW 900 |  |  | 0.642 | 0.542 |  | 0.287 | 0.418 | 0.28 | 0.37 | 0.35 | 0.488 | 0.515 | 0.568 |  | 0.467 | 0.395 | 0.426
